Key:
[1] = system: STOP KO (−/−) mice; assay: Survival of the newborns of treated STOP KO (−/−) mothers; assay type: in vivo; conditions: short-term treatment (6 to 8 days before birth), 0.5 mg/kg/day
Method: The survival of the newborns is analyzed among the STOP KO (−/−) mice subjected to various treatments. The newborns are considered to be survivors when they are raised until weaning.
(§1) Haloperidol (Haldol^R, JANSSEN-CILAG), chlorpromazine (Largactil^R, RHONE-POULENC) and diazepam (Valium^R, ROCHE) were administered to the mice in the drinking water, at a dose of 0.5 mg/kg/day.

[2] = system: STOP KO (−/−) mice; conditions: STOP KO (−/−) mothers, short-term treatment (6 to 8 days before birth), 0.5 mg/kg/day in the drinking water, first day post-partum
Method: Post-partum females (second gestation) were reared individually from the beginning of their gestation. On the day of giving birth, the young mice were removed and kept in the warm for one hour. The mother was then removed from her usual cage and three newborns were each placed in a corner of this same cage, at a distance from the nest. Next, the mother was returned to her nest and the number of young mice reinstalled in the nest, over a period of 20 minutes, was evaluated.
The effect of anxiolytics (diazepam) and of neuro-leptics (chlorpromazine, haloperidol or clozapine) on the behavioral disorders of the STOP KO (−/−) mice was evaluated in the maternal behavior test as defined in example 3 (“reinstallation in the nest” test).
as §1
The effect of short-term administration (for 6 to 8 days from the 6th day preceding the birth) of anxiolytics (diazepam) and of neuroleptics (chlorpromazine, haloperidol or clozapine) on the behavioral disorders of the STOP KO (−/−) mice was evaluated in the “reinstallation in the nest” test.

Compound: CN1C(=O)CN=C(c2ccccc2)c2cc(Cl)ccc21 [diazepam]
- survival of the young mice [1]: no survival
- reinstallation of the young mice in the nest [2]: slightly improved

Source: patent publication US8198507B2, “Transgenic or recombinant non-human mammals and their uses in screening psychoactive medicines” (Institut National de la Sante Et de la Recherche Medicale - …, priority 2000, dated 2012)
